This is an account of results in ChEMBL document CHEMBL5360623, “Principles and Applications of CF2X Moieties as Unconventional Halogen Bond Donors in Medicinal Chemistry, Chemical Biology, and Drug Discovery” (J Med Chem, 2023).

Data set [1] addresses Mitogen-activated protein kinase 8 (Homo sapiens, UniProt P45983). The data set is described as follows: Binding affinity to JNK1 (2 to 364 residues) (unknown origin) expressed in Escherichia coli BL21(DE3) assessed as dissociation constant by isothermal titration calorimetry assay.
The target of data set [2] is Mitogen-activated protein kinase 10 (Homo sapiens, UniProt P53779). The data set is described as follows: Binding affinity to JNK3 (39 to 402 residues) (unknown origin) expressed in Escherichia coli BL21(DE3) assessed as dissociation constant by isothermal titration calorimetry assay.
Data set [3] is described as follows: Stability of the compound in PBS buffer assessed as half life at 250 uM at pH 7.4 in presence of GSH by HPLC analysis. Conditions: pH 7.4, 250 µM; call rule not given here. It counts as physicochemical.

Sequence of Mitogen-activated protein kinase 10 (P53779 whole entry, the tested form may be a part): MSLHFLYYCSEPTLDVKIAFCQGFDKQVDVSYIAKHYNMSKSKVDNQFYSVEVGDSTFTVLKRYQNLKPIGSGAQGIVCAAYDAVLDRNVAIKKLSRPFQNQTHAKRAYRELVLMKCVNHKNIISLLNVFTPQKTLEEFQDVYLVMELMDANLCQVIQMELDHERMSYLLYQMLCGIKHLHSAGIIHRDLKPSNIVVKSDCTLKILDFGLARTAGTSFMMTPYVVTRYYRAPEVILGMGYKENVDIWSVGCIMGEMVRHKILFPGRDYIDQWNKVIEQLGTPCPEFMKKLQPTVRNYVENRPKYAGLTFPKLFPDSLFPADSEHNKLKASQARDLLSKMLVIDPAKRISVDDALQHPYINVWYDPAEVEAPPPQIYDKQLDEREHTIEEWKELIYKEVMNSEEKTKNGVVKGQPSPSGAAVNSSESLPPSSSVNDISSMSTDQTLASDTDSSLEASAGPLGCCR
Sequence of Mitogen-activated protein kinase 8 (P45983 whole entry, the tested form may be a part): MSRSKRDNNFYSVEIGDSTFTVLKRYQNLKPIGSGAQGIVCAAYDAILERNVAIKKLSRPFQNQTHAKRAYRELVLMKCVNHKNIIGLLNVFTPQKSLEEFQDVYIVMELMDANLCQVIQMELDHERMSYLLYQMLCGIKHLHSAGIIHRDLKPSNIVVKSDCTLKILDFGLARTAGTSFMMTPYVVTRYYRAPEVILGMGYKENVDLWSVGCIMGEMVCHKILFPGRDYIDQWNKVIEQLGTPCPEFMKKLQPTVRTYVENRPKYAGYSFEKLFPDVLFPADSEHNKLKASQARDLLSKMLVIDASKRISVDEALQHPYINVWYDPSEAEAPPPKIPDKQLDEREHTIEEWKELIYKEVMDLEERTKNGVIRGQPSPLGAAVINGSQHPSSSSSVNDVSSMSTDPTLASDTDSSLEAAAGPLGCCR

Turning to `O=C(Nc1nnc(-c2ccncc2)s1)C(F)(F)Cl`, the Kd in data set [1] (read-out: Kd) was found to be 20 µM; in data set [2] (read-out: Kd) it was 23 µM.

In the case of `O=C(Nc1ccc2c(c1)OCO2)C(F)(F)Br`, the t1/2 in data set [3] is 11.7 days. In addition, the equilibrium dissociation constant (Kd) in data set [1] (read-out: Kd) and in data set [2] (read-out: Kd) was > 1000 µM throughout.

Consider `O=C(Nc1ccc(Cn2cncn2)cc1)C(F)(F)Br`, for which the dissociation constant (Kd) result in data set [1] and in data set [2] was “Not Active” in each case.

Regarding `O=C(NCCc1c[nH]c2ccccc12)C(F)(F)Cl`, the Kd entry in data set [1] and in data set [2] was “Not Active” throughout.

As to `O=C(Nc1cccc2nsnc12)C(F)(F)Br`, the Kd result in data set [1] and in data set [2] was “Not Active” each time.

As to `NC(=O)Nc1ccc(NC(=O)C(F)(F)Br)cc1`, the equilibrium dissociation constant (Kd) result in data set [1] and in data set [2] was “Not Active” each time.

In the case of `O=C(Nc1nnc(-c2ccncc2)s1)C(F)(F)I`, the Kd is 10 µM in data set [1] (read-out: Kd) and 13 µM in data set [2] (read-out: Kd).

As to `O=C(Nc1nccs1)C(F)(F)Br`, the Kd in data set [1] (read-out: Kd) and in data set [2] (read-out: Kd) was > 1000 µM throughout.

`NC(=O)Nc1ccc(OC(F)(F)I)cc1`: the t1/2 in data set [3] turned out to be 0.3 days.

For `O=C(c1ccco1)N1CCN(C(=O)C(F)(F)Br)CC1`, the Kd result in data set [1] and in data set [2] was “Not Active” in each case.

With `O=C(Nc1ccc(F)cc1)C(F)(F)Br`, the Kd entry in data set [1] and in data set [2] was “Not Active” in each case.

Take `O=C(Nc1ccc2c(c1)OCO2)C(F)F`: in data set [3], the t1/2 was > 50 days.

As to `O=C(Nc1ccc2c(c1)OCO2)C(F)(F)I`, the t1/2 in data set [3] is 12.1 days. Also, the Kd result in data set [1] and in data set [2] was “Not Active” in each case.

Turning to `NC(=O)Nc1ccc(OC(F)(F)Br)cc1`, the t1/2 in data set [3] was determined as 0.221 days.

Turning to `NC(=O)Nc1ccc(OC(F)F)cc1`, the t1/2 in data set [3] is > 50 days.

Turning to `O=C(Nc1nncs1)C(F)(F)Cl`, the Kd in data set [1] (read-out: Kd) came to 186 µM; in data set [2] (read-out: Kd), 243 µM.

Turning to `Nc1nnc(-c2ccncc2)s1`, the Kd in data set [1] (read-out: Kd) is 162 µM; in data set [2], “Not Active”.

`O=C(Nc1nncs1)C(F)(F)I`: the Kd in data set [1] (read-out: Kd) was determined as 104 µM; in data set [2] (read-out: Kd), 186 µM.

Consider `O=C(c1cnc2ccccn12)C(F)(F)Cl`, for which the Kd in data set [1] (read-out: Kd) and in data set [2] (read-out: Kd) was > 1000 µM throughout.

In the case of `O=C(Nc1ccc2c(c1)OCO2)C(F)(F)F`, the t1/2 in data set [3] is 5.42 days.

Consider `CCOC(=O)c1c(NC(=O)C(F)(F)Br)sc2c1CCCC2`, for which the equilibrium dissociation constant (Kd) result in data set [1] and in data set [2] was “Not Active” throughout.

For the molecule `NC(=O)Nc1ccc(OC(F)(F)F)cc1`, the t1/2 in data set [3] was > 50 days.

On to `O=C(Nc1nncs1)C(F)(F)Br`, for which the Kd in data set [1] (read-out: Kd) stood at 193 µM; in data set [2] (read-out: Kd) it was 248 µM.

`O=C(Nc1nnc(-c2ccncc2)s1)C(F)(F)Br`: the values for the Kd in data set [1] (read-out: Kd) and in data set [2] (read-out: Kd) were 15 µM and 17 µM, respectively.

Consider `CCOC(=O)c1cnn(C)c1NC(=O)C(F)(F)Cl`, for which the Kd entry in data set [1] and in data set [2] was “Not Active” throughout.

Regarding `COC(=O)c1scc(C)c1NC(=O)C(F)(F)Cl`, the Kd entry in data set [1] and in data set [2] was “Not Active” in each case.

For the molecule `O=C(Nc1nnc(-c2ccc([N+](=O)[O-])cc2)o1)C(F)(F)Br`, the dissociation constant (Kd) result in data set [1] and in data set [2] was “Not Active” throughout.

Regarding `O=C(Nc1ccc2c(c1)OCO2)C(F)(F)Cl`, in data set [3], the t1/2 was determined as 10.8 days. The Kd result is “Not Active” in data set [1] and > 1000 µM in data set [2] (read-out: Kd).

With `O=C(Nc1ccc(O)c(O)c1)C(F)(F)Cl`, the Kd entry in data set [1] and in data set [2] was “Not Active” throughout.

Turning to `NC(=O)Nc1ccc(OC(F)(F)Cl)cc1`, the t1/2 in data set [3] is > 50 days.
